From patent US11311522B1 (Cavion, Inc., priority 2018, dated 2022)
Like-named read-outs stand apart in the source and are kept apart here.

Experiments:
[1] = Phase 1 single-dose pharmacokinetics (PN001, PN002/Part I, PN003, PN005); assay type: in vivo, human; conditions: 8 mg CX-8998
[2] = Simulated Css and total active moiety, 10 mg BID; parameters: species or system human; conditions: for Css, estimated mean / Steady-state AUC24, estimated mean: CX-8998 10 mg twice daily fasted; for Cu, ss_adj: adjusted for fu and potency, 10 mg BID; for Cp, ss / Cu, ss: simulated from CX-8998 10 mg BID
Cav3.3 = molecular target: T1, Cav3.3 (Homo sapiens, UniProt Q9P0X4); experiment: Cav3.3 FLIPR calcium influx assay (HEK 293 cells); assay type: cell-based; conditions: for IC50: Cav3.3 FLIPR assay; for State dependence: hyperpolarized versus depolarized FLIPR potency
T1 construct: expressed in transfected cells; host or cells: HEK 293

WAG/Rij rats = experiment: WAG/Rij rat model of absence epilepsy; assay type: in vivo; conditions: 10 mg/kg oral
Text: Other T-type antagonists from structurally diverse series have shown similar efficacy in this model (Broicher, 2007; Blumenfeld, 2008; Broicher, 2008; Shipe, 2008; Yang, 2008; Uebele, 2009; Russo, 2010; Russo, 2011).
Data were scored with automated seizure analysis software, averaged, and normalized to enable treatment comparisons (FIG. 76)
Control animals received vehicle administrations. […] Source: Merck TTA Package Description (FIG. 79).

Pharmacokinetics in rats = assay type: in vivo, rat; conditions: for AUC: rat, plasma, po, 10 mg/kg, read-out: AUC24; for Ratio of AUC24 (metabolite/CX-8998): Rat, single oral dose 10 mg/kg of CX-8998
Protocol: The validity and reproducibility of the assays were determined, and the precision and accuracy for calibration standards and quality control samples were examined. […] The analytes were stable in plasma under the storage and assay conditions. […] Assay performances were satisfactory and met acceptance criteria for system performance suitability, quantitation range, calibration linearity, assay accuracy and precision, and assay recovery.

[3] = In vitro plasma protein binding, rat; assay type: in vitro ADME
Text: CX-8998 distributes readily to the brain in rats and to brain and cerebral spinal fluid (CSF) in dogs.

[4] = In vitro plasma protein binding, human; assay type: in vitro ADME
P-glycoprotein = P-glycoprotein bidirectional transport; assay type: in vitro ADME, human, monkey, and rat
Text: Glucuronide conjugates of the oxygenated metabolites are detected in human, monkey, and dog hepatocyte preparations. […] However, the abundance of CYP3A5, CYP2C19, and CYP2D6 in human liver microsomes is low (2%-5%) relative to the primary contributors, CYP3A4 (˜30%) and CYP2C9 (˜20%). […] Information on reproductive and developmental toxicology was obtained in a 28-day pivotal female fertility study in rats and in preliminary embryo-fetal development studies in rats and rabbits.

[5] = system: CYP1A2, CYP3A4, CYP2C8, CYP2C9, CYP2C19, CYP2D6, CYP2B6; experiment: CYP inhibition in human liver microsomes; assay type: in vitro ADME
[6] = system: T2, CYP1A2, CYP3A4, CYP2C8, CYP2C9, CYP2C19, CYP2D6; experiment: CYP inhibition in human liver microsomes; assay type: in vitro ADME; conditions: human liver microsomes
T2 construct: IC50, CYP1A2, CYP3A4, CYP2C8, CYP2C9, CYP2C19, CYP2D6; other: human liver microsomes

[7] = for Day 90 Free Margin for AUC24 at NOAEL for Dog 90-Day Toxicology / Day 90 Free Plasma AUC24 at NOAEL for Dog 90-Day Toxicology: Beagle; for Day 90 Free Plasma AUC24 at NOAEL for Dog 90-Day Toxicology: 30 mg/kg/day; for Day 90 Free Plasma AUC24 at NOAEL for Rat 90-Day Toxicology: 300 mg/kg/day
in vivo = conditions: rat, po
clinical = conditions: human, plasma, oral, 8 mg
Text: Subjects will be screened for study eligibility within 28 days before administration of the first dose of study drug. Subjects who meet the study eligibility criteria will be admitted to the clinical research unit in the afternoon of the day before administration of the first dose of study drug (Period 1/Day −1).
Treatments A, B, and C will be separated by a minimum 7-day washout period. […] Administration of Treatment D may be separated from administration of Treatments A, B, and C by approximately 4 weeks to allow for analysis of the bioanalytical samples from the first 3 treatments.

[8] = Crossover bioavailability study IR vs MR1 vs MR2 capsules: PK; parameters: AUC72hr: unit not given beside the values; conditions: for Tmax / AUC72hr / Cmax: plasma; for AUC72hr Ratio / Cmax Ratio: metabolite to CX-8998
[9] = M02, middle-aged and elderly men
[10] = M02, middle-aged and elderly women
[11] = depolarized, read-out: Depolarized FLIPR potency
[12] = hyperpolarized, read-out: Hyperpolarized FLIPR potency
[13] = rat plasma, read-out: In vitro plasma protein binding (converted)
[14] = human plasma, read-out: In vitro plasma protein binding (converted)
[15] = humans, read-out: free fraction
[16] = following a single 8 mg dose of MR1 CX-8998
[17] = following a single 8 mg dose of MR2 CX-8998
[18] = M01, middle-aged and elderly men
[19] = M01, middle-aged and elderly women
[20] = single 8 mg dose of MR1 CX-8998
[21] = single 8 mg dose of MR2 CX-8998

T1 sequence (Q9P0X4 whole entry, species assumed): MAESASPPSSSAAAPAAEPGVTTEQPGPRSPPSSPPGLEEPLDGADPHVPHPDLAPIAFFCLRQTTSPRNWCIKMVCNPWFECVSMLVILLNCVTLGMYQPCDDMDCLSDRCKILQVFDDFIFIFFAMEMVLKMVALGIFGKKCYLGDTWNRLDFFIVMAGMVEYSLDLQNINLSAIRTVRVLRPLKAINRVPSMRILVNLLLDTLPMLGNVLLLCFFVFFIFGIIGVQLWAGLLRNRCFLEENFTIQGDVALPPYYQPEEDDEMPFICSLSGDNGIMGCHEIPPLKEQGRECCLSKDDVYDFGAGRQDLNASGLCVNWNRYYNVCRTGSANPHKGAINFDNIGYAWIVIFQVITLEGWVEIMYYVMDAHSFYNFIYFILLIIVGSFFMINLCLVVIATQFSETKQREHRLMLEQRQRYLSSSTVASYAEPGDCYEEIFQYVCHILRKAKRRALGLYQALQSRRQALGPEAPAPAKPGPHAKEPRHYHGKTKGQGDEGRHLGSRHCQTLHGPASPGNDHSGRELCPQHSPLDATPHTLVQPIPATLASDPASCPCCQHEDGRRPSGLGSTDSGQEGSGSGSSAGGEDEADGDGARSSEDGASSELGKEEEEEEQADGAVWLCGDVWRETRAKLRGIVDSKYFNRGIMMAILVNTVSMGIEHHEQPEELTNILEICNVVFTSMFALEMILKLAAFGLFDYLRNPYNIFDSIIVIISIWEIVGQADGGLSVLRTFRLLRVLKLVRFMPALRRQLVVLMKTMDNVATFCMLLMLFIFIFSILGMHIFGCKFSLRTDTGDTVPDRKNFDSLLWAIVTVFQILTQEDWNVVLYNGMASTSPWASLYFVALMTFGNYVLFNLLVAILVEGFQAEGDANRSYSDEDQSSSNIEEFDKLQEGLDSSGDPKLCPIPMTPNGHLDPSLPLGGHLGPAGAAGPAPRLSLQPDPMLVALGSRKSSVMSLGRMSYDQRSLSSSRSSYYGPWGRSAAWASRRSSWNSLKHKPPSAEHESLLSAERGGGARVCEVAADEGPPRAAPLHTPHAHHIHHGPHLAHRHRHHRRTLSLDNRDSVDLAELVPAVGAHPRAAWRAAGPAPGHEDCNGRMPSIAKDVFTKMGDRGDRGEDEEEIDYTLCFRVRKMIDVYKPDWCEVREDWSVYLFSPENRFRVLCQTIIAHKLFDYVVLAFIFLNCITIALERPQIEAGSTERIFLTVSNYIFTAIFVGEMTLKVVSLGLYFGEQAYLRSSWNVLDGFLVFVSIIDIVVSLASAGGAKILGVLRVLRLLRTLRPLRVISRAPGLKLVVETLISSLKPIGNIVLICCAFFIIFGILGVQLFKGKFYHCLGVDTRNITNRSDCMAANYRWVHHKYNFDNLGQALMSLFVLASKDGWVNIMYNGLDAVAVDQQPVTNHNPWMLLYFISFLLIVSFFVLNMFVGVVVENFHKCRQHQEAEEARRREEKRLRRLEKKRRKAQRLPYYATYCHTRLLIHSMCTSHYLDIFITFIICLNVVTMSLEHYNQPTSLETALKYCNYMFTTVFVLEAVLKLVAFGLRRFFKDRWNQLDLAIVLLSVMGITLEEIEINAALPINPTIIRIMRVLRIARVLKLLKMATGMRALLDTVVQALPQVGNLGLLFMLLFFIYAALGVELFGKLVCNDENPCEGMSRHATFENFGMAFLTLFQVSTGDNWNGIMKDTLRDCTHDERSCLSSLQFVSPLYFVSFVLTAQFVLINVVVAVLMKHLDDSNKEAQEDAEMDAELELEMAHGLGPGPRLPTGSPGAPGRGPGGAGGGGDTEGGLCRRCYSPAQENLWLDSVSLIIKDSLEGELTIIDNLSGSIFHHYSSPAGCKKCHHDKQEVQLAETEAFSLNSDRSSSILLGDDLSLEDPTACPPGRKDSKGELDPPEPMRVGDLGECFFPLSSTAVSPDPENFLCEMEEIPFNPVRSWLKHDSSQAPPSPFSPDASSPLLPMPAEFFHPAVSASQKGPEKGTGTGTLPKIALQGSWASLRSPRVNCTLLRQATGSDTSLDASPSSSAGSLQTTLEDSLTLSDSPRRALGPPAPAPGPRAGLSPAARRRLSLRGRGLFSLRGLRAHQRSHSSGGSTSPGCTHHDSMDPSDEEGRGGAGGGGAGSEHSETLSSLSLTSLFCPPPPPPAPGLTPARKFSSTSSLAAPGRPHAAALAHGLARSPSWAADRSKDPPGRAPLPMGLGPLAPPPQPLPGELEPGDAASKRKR

With `C[C@@H](NC(=O)Cc1ccc(C(C)(C)O)cc1)c1ccc(OCC(F)(F)F)cn1` [M02] the “AUCinf, middle-aged and elderly female vs male subjects” value [1] was 11% lower, the “Cmax, middle-aged and elderly female vs male subjects” value [1] was 2% higher and the “Css, estimated mean” value [2, 9] was 683 nM. For the same molecule, the “Steady-state AUC24, estimated mean” value [2, 9] was 15.312 µM·h, the “Css, estimated mean” value [2, 10] was 566 nM and the “Steady-state AUC24, estimated mean” value [2, 10] was 13.584 µM·h. The “Css, estimated mean” value ([2]; M02, young men) was 343 nM, the “Steady-state AUC24, estimated mean” value ([2]; M02, young men) was 8.232 µM·h and the “Cu, ss_adj” value [2] was 10.1 nM. The “Cp, ss” value [2] was 343 nM, the “Cu, ss” value [2] was 48 nM and the IC50 (Cav3.3; [11]) was 17 nM. It also gave an IC50 (Cav3.3; [12]) of 2840 nM, a State dependence (Cav3.3) of 166 fold and a Percent of inhibition (WAG/Rij rats) of 67%. The AUC (Pharmacokinetics in rats; female) was 31 µM·h, the AUC (Pharmacokinetics in rats; male) was 10 µM·h and the fraction unbound [3, 13] was 0.29. For the same molecule, the fraction unbound ([3]; rats, read-out: free fraction) was 0.29, the fraction unbound [4, 14] was 0.14 and the fraction unbound [4, 15] was 0.14. The “P-glycoprotein substrate or inhibitor activity” value (P-glycoprotein) was “showed increased efflux in the rat and monkey assays”, the “Time-dependent inhibition of CYP3A4 or CYP2B6” value [5] was “insignificant” and the IC50 [6] was over 20 µM. The “Day 90 Free Margin for AUC24 at NOAEL for Rat 90-Day Toxicology” value ([7]; Female rats vs human 10 mg BID) was 129, the “Day 90 Free Margin for Cmax at NOAEL for Rat 90-Day Toxicology” value ([7]; Male rats vs human 10 mg BID (fed)) was 117 and the “Day 90 Free Margin for AUC24 at NOAEL for Dog 90-Day Toxicology” value ([7]; female) was 33. The “Day 90 Free Plasma AUC24 at NOAEL for Dog 90-Day Toxicology” value ([7]; female) was 37,620 nM · hr, the “Day 90 Free Plasma AUC24 at NOAEL for Rat 90-Day Toxicology” value ([7]; female, rat) was 148,190 nM · hr and the “Day 90 Free Margin for AUC24 at NOAEL for Dog 90-Day Toxicology” value ([7]; male) was 33. For the same molecule, the “Day 90 Free Plasma AUC24 at NOAEL for Dog 90-Day Toxicology” value ([7]; male) was 38,340 nM · hr, the “Day 90 Free Margin for AUC24 at NOAEL for Rat 90-Day Toxicology” value ([7]; male, rat) was 65 and the “Day 90 Free Plasma AUC24 at NOAEL for Rat 90-Day Toxicology” value ([7]; male, rat) was 74,820 nM · hr. For the same molecule, the AUC (in vivo; female, 5 mg/kg) was 16.7 µM·h, the AUC (in vivo; female, 15 mg/kg) was 54.8 µM·h and the AUC (in vivo; female, 100 mg/kg) was 567 µM·h. For the same molecule, the AUC (in vivo; female, 300 mg/kg) was 511 µM·h, the AUC (in vivo; male, 5 mg/kg) was 12 µM·h and the AUC (in vivo; male, 15 mg/kg) was 26.1 µM·h. It also gave an AUC (in vivo; male, 100 mg/kg) of 186 µM·h, an AUC (in vivo; male, 300 mg/kg) of 258 µM·h and an AUC(0-t) (clinical) of 3.67 µM·h. It also gave a Cmax (clinical) of 122 nM, a Tmax ([8]; following a single 8 mg dose of IR CX-8998) of 5 h and an AUC72hr [8, 16] of 3343. The Cmax [8, 16] was 94 nM, the Tmax [8, 16] was 11 h and the AUC72hr [8, 17] was 3142. For the same molecule, the Cmax [8, 17] was 73 nM and the Tmax [8, 17] was 16 h.

In the case of `C=C(C)c1ccc(CC(=O)N[C@H](C)c2ccc(OCC(F)(F)F)cn2)cc1` [M01], the “AUCinf, middle-aged and elderly female vs male subjects” value [1] is reported as 2% lower, the “Cmax, middle-aged and elderly female vs male subjects” value [1] is reported as 12% lower and the “Potency relative to CX-8998” value [2] is reported as 1.57. For the same molecule, the “Css, estimated mean” value [2, 18] was 1167 nM, the “Steady-state AUC24, estimated mean” value [2, 18] was 28.008 µM·h and the “Css, estimated mean” value [2, 19] was 1146 nM. The “Steady-state AUC24, estimated mean” value [2, 19] was 27.504 µM·h, the “Css, estimated mean” value ([2]; M01, young men) was 771 nM and the “Steady-state AUC24, estimated mean” value ([2]; M01, young men) was 18.504 µM·h. The “Cu, ss_adj” value [2] was under 1.2 nM, the “Cp, ss” value [2] was 771 nM and the “Cu, ss” value [2] was under 0.8 nM. For the same molecule, the IC50 (Cav3.3; [11]) was 2.3 nM, the IC50 (Cav3.3; [12]) was 86 nM and the State dependence (Cav3.3) was 37 fold. The Percent of inhibition (WAG/Rij rats) was 71%, the “Ratio of AUC24 (metabolite/CX-8998)” value (Pharmacokinetics in rats; Female) was 0.52 and the “Ratio of AUC24 (metabolite/CX-8998)” value (Pharmacokinetics in rats; Male) was 0.63. For the same molecule, the AUC (Pharmacokinetics in rats; female) was 8.7 µM·h, the AUC (Pharmacokinetics in rats; male) was 3.7 µM·h and the fraction unbound [3, 13] was 0.004. It also gave a fraction unbound ([3]; rats, read-out: free fraction) of 0.004, a fraction unbound ([4]; human plasma, read-out: Human-free fraction) of under 0.001 and a fraction unbound [4, 14] of under 0.001. For the same molecule, the fraction unbound [4, 15] was under 0.001, the “P-glycoprotein substrate or inhibitor activity” value (P-glycoprotein) was “did not demonstrate any activity as a substrate or inhibitor” and the “Time-dependent inhibition of CYP3A4 or CYP2B6” value [5] was “insignificant”. The IC50 [6] was over 20 µM, the “Day 90 Free Margin for AUC24 at NOAEL for Dog 90-Day Toxicology” value ([7]; female) was over 16 and the “Day 90 Free Plasma AUC24 at NOAEL for Dog 90-Day Toxicology” value ([7]; female) was under 309 nM · hr. The “Day 90 Free Margin for AUC24 at NOAEL for Rat 90-Day Toxicology” value ([7]; female, rat) was over 49, the “Day 90 Free Plasma AUC24 at NOAEL for Rat 90-Day Toxicology” value ([7]; female, rat) was under 936 nM · hr and the “Day 90 Free Margin for AUC24 at NOAEL for Dog 90-Day Toxicology” value ([7]; male) was over 19. The “Day 90 Free Plasma AUC24 at NOAEL for Dog 90-Day Toxicology” value ([7]; male) was under 363 nM · hr, the “Day 90 Free Margin for AUC24 at NOAEL for Rat 90-Day Toxicology” value ([7]; male, rat) was over 26 and the “Day 90 Free Plasma AUC24 at NOAEL for Rat 90-Day Toxicology” value ([7]; male, rat) was under 500 nM · hr. The AUC (in vivo; female, 5 mg/kg) was 5.02 µM·h, the AUC (in vivo; female, 15 mg/kg) was 20.3 µM·h and the AUC (in vivo; female, 100 mg/kg) was 231 µM·h. It also gave an AUC (in vivo; female, 300 mg/kg) of 234 µM·h, an AUC (in vivo; male, 5 mg/kg) of 4.33 µM·h and an AUC (in vivo; male, 15 mg/kg) of 11.3 µM·h. For the same molecule, the AUC (in vivo; male, 100 mg/kg) was 85.9 µM·h, the AUC (in vivo; male, 300 mg/kg) was 125 µM·h and the AUC(0-t) (clinical) was 6.88 µM·h. For the same molecule, the Cmax (clinical) was 124 nM, the Tmax (clinical) was 29 h and the “AUC72hr Ratio” value ([8]; single 8 mg dose of IR CX-8998) was 0.92. For the same molecule, the “Cmax Ratio” value ([8]; single 8 mg dose of IR CX-8998) was 0.14, the “AUC72hr Ratio” value [8, 20] was 0.95 and the “Cmax Ratio” value [8, 20] was 0.27. For the same molecule, the “AUC72hr Ratio” value [8, 21] was 0.90, the “Cmax Ratio” value [8, 21] was 0.35 and the AUC72hr [8, 16] was 7118. The Cmax [8, 16] was 121 nM, the Tmax [8, 16] was 26 h and the AUC72hr [8, 17] was 6395. It also gave a Cmax [8, 17] of 113 nM and a Tmax [8, 17] of 39 h.
